For one assay, the target named is Thromboxane-A synthase (Oryctolagus cuniculus). The assay is described as follows: Inhibition of platelet microsomal thromboxane A2 synthetase in rabbits.
Turning to `O=C(O)C1=Cc2sc(Cn3ccnc3)cc2CC1` [2-Imidazol-1-ylmethyl-4,5-dihydro-benzo[b]thiophene-6-carboxylic acid], the IC50 amounted to 13 nM.

The target of another assay is T1, Thromboxane-A synthase (Homo sapiens, UniProt P24557).
T1 sequence (P24557 whole entry): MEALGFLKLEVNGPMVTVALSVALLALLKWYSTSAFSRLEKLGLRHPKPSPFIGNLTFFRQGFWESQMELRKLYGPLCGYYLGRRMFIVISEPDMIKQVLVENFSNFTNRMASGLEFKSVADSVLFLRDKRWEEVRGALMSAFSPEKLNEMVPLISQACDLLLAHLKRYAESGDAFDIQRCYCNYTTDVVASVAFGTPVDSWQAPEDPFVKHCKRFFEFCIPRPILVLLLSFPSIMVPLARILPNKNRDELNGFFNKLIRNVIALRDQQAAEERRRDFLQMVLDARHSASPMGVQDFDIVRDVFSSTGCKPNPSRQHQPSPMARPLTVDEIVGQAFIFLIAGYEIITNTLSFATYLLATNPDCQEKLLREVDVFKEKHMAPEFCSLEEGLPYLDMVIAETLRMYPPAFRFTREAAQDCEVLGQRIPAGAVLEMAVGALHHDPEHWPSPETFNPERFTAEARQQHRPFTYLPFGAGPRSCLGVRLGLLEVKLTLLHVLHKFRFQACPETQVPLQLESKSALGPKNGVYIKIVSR
The assay is described as follows: ChEBML_209951. The source says: Inhibition of thromboxane A2 synthetase
As for `O=C(O)C1=Cc2cc(C(c3ccccc3)n3ccnc3)sc2CC1` (stereo not drawn), 114 nM corresponded to half-maximal inhibition (IC50).

`O=C(O)C1CCc2cc(CCn3ccnc3)sc2C1` (stereo not drawn): the IC50 came to 1850 nM.

With `O=C(O)C1=Cc2cc(CCn3ccnc3)sc2CC1`, the half-maximal inhibitory concentration (IC50) was 100 nM. This IC50 is about 18-fold lower than that of the compound before.

`O=C(O)C1CCc2sc(CCn3ccnc3)cc2C1` (stereo not drawn): inhibition was half-maximal at 1020 nM (IC50). This IC50 lies about 10-fold higher than the previous one.

`O=C(O)C1=Cc2sc(CCn3ccnc3)cc2CC1` returned an IC50 greater than 10000 nM.

`O=C(O)C1CCc2sc(Cn3ccnc3)cc2C1` (stereo not drawn): the midpoint of inhibition, the IC50, lay at 86 nM.

Take `O=C(O)c1cc2c(s1)CCC(Cn1ccnc1)C2` (stereo not drawn): the IC50 stood at 114 nM.

With `O=C(O)c1cc2c(s1)CC(Cn1ccnc1)CC2` (stereo not drawn), the 50% inhibitory concentration (IC50) worked out at 2680 nM.

Take `O=C(O)C1=Cc2cc(Cn3ccnc3)sc2CC1`: the IC50 was 93 nM.

For `CC(C)(C)C(c1cc2c(s1)CCC(C(=O)O)=C2)n1ccnc1` (stereo not drawn), the IC50 was greater than 10000 nM.

As to `O=C(O)C1=Cc2cc(C(C3CCCCC3)n3ccnc3)sc2CC1` (stereo not drawn), the half-inhibitory concentration (IC50) was greater than 10000 nM.

In turn, `O=C(O)C1=Cc2sc(Cn3ccnc3)cc2CC1` [2-Imidazol-1-ylmethyl-4,5-dihydro-benzo[b]thiophene-6-carboxylic acid] gave an IC50 of 13 nM.
